Data taken from ChEMBL document CHEMBL3727363, “Imidazothiadiazole derivatives as protease activated receptor 4 (PAR4) inhibitors for treating platelet aggregation” (2013).

Legend:
[1] = molecular target: T1, Proteinase-activated receptor 4 (Homo sapiens) (UniProt Q96RI0); test: Antagonist activity against PAR4 in washed human platelets assessed as inhibition of 5 nM alpha-thrombin-induced platelet aggregation pre-incubated for 5 mins before alpha-thrombin addition by optical aggregometry; type: functional
T1 sequence (whole entry): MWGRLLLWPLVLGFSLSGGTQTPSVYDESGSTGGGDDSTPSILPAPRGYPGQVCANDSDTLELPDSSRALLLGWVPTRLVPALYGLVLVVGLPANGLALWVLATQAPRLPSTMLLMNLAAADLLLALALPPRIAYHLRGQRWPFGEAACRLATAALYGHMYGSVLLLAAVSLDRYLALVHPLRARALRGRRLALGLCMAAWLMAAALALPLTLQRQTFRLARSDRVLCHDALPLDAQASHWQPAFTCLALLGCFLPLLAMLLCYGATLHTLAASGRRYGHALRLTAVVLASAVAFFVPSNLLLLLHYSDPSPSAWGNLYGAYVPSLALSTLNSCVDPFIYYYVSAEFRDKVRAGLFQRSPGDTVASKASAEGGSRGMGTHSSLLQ

[2] = molecular target: T1, Proteinase-activated receptor 4 (Homo sapiens); test: Antagonist activity against PAR4 in washed human platelets assessed as inhibition of […] alpha-thrombin-induced platelet aggregation pre-incubated for 5 mins before alpha-thrombin addition by optical aggregometry; type: functional
[3] = molecular target: T2, Proteinase-activated receptor 4 (Homo sapiens, UniProt Q96RI0); test: Antagonist activity against human PAR4 expressed in HEK293 cells assessed as reduction in H-Ala-Phe(4-F)-Pro-Gly-Trp-Leu-Val-Lys-Asn-Gly-NH2-induced intracellular calcium mobilization incubated for 30 mins before agonist addition by FLIPR assay; type: functional, cell-based
T2 sequence (Q96RI0 whole entry): T1 sequence (whole entry)

Cynomolgus monkey [4] = test: Antithrombotic activity in cynomolgus monkey model of electrolytic injury-induced carotid artery thrombosis assessed as reduction in thrombosis-induced occlusion by measuring thrombus weight at 0.4 mg/kg, po dosed 1 to 2 hrs before test; type: functional, Macaca fascicularis; set-up: scale not given: the % may be the effect or the level left
Cynomolgus monkey [5] = test: Antithrombotic activity in cynomolgus monkey model of electrolytic injury-induced carotid artery thrombosis assessed as reduction in thrombosis-induced occlusion by measuring thrombus weight at 2 mg/kg, po dosed 1 to 2 hrs before test; type: functional, Macaca fascicularis; set-up: scale not given: the % may be the effect or the level left
Cynomolgus monkey [6] = test: Antithrombotic activity in cynomolgus monkey model of electrolytic injury-induced carotid artery thrombosis assessed as reduction in thrombosis-induced occlusion by measuring thrombus weight at 10 mg/kg, po dosed 1 to 2 hrs before test; type: functional, Macaca fascicularis; set-up: scale not given: the % may be the effect or the level left

With COc1cc(OCc2ccccc2)c2cc(-c3cn4nc(OC)sc4n3)oc2c1 the inhibition [1] was “Dose-dependent effect” and the inhibition [2] was “Dose-dependent effect”.
Molecule COc1cccc2oc(-c3cn4nc(SC)sc4n3)cc12 has an IC50 [3] of 11.1 nM.
With COc1nn2cc(-c3cc4ccc([N+](=O)[O-])cc4o3)nc2s1 the IC50 [3] was 38.2 nM.
For COc1cc(OCc2cccc(OCc3ccc(OC)c(C)c3C)c2)c2cc(-c3cn4nc(OC)sc4n3)oc2c1, the IC50 [3] was 5.49 nM.
COc1cc(OCc2cccc(OCc3ccccc3)c2)c2cc(-c3cn4nc(OC)sc4n3)oc2c1 showed an Activity (Cynomolgus monkey [4]) of -9%, an Activity (Cynomolgus monkey [5]) of -38% and an Activity (Cynomolgus monkey [6]) of -38%.
CSc1nn2cc(-c3cc4c(C(F)(F)F)cc(C)nc4o3)nc2s1 showed an IC50 [3] of 8.15 nM.
